Results from US20250281474A1, “PHARMACEUTICAL COMPOSITION FOR TREATING COGNITIVE DECLINE OR FOR TREATING OVERWEIGHTNESS OR OBESITY” (University of the Ryukyus, priority 2021, published 2025).

Legend:
[1] = system: NMDAR; assay: Ca2+ imaging of hippocampal brain slices, NMDA+glycine application, ob/ob mice; conditions: ob/ob mice, PER administration; p<0.05
[2] = system: AMPAR (CP-AMPAR); assay: Ca2+ imaging of hippocampal brain slices, AMPA+CTZ application (CP-AMPA reaction), HFD-fed mice; assay type: cell-based; conditions: slices of HFD-fed mice given PER 5 mg/kg/day orally, 100 μM AMPA + 100 μM CTZ, N=5
Description: First, the intracellular calcium concentration ([Ca^2+]i) was directly measured in an acute brain slice of the hippocampus having a perihippocampal region using a mouse obesity model associated with HFD feeding (composition of diet (7) shown in Table 1) for 12 weeks after weaning to track calcium signaling (FIG. 1A: supplementary data moving image 1) in the hippocampus. HFD-fed mice received […] containing 100 μM CTZ (cyclothiazide; […]) applied to EC (entorhinal cortex), CA1 (cornu ammonis 1), CA2, CA3, and DG (dentate gyrus). The F525 normalized before and after application was compared.

[3] = Appearance and body weight of ob/ob mice; assay type: in vivo, mouse; conditions: ob/ob mice fed perampanel-containing diet 5 mg/kg body weight from 8 to 12 weeks of age
Description: ob/ob mice and their littermates with wild-type traits were obtained as the offspring of ob+/− mice. These mice were fed freely and some of the ob/ob mice were fed perampanel-containing diet at 5 mg/kg body weight from 8 to 12 weeks of age. The appearance and body weight of these mice were compared at 12 weeks of age.

[4] = system: HFD-fed mice; assay: MRI volumetric analysis of mouse hippocampus; assay type: in vivo; conditions: HFD-fed mice n=8 treated with PER; left CA1 and DG, right CA1, CA3 and DG
Excerpt: Anatomical brain images of 8 ex vivo mice with CD, HFD, PER treatment were acquired using a Bruker BioSpec 117/11 11.75 Tesla MRI scanner (Bruker BioSpin GmbH, Ettlingen, Germany). MPRAGE (three-dimensional (3D)-prepared rapid gradient-echo) sequences were acquired as high resolution 100 μm iso-voxel images for voxel-based morphometry (matrix size: 280×220×220; field of view: 28×22×22 mm, repetition time: 2000 ms, echo time: 1.78 ms, flip angle: 12 degrees, inversion time: 800 ms, echo train length: 13, average number of times: 2).
A region of interest was drawn in the acquired data image using a rapid acquisition protocol by relaxation enhancement (RARE) sequence (matrix size: 280×220×220, field of view: 28×22×22 mm; repeat time: 1500 ms; echo time: 25 ms; flip angle: 180°). The MPRAGE image and the RARE image were simultaneously acquired by one single scan.
MRI data acquisition of ex vivo mice was acquired by simultaneously placing the head parts of four mice fixed with PBS into an MRI coil. Brains of four mice were confirmed using raw MRI data. […]
The volume of subfields of the hippocampus (CA1, CA2, CA3, DG, EC) was calculated using the ROI file (31, 33, 51, 52). […]

[5] = system: NL-GF mice; assay: Novel object recognition test, AD model mice (NL-GF); assay type: in vivo, mouse; conditions: NL-GF mice n=5; CD diet with perampanel 5 mg/kg body weight/day from 8 to 13 weeks of age
Description: Mice of CD, HFD, and HFD with PER treatment were handled daily for 5 minutes for 5 days prior to the start of the novel object recognition test. PER means the perampanel, which is an AMPA receptor antagonist. The mice were habituated to a 35 cm square, 25 cm high box for 10 minutes on the first day, and were given 2 identical objects (familiar objects) for 10 minutes on the second day. On the third day, one of the familiar objects was replaced with a novel object of different shape and color (FIG. 2F). […] The search time for each object was measured by offline analysis (47).
NL-GF mice begin to accumulate in the brain of Aβ from 8 weeks of age (Nat. Neurosci. 2014 17,661-4). In this example, the AD model mouse (n=5) was fed a CD diet containing a perampanel at a dose of 5 mg/kg body weight/day from 8 to 13 weeks of age, and the mouse was subjected to a novel object recognition test. In the negative control (n=5), a normal CD diet without perampanel was taken.

[6] = system: HFD-fed mice; assay: Five-trial social memory assay, HFD-fed mice; assay type: in vivo, mouse; conditions: HFD-fed mice with PER treatment
Description: Five-trial social tests were performed as previously described (19). In summary, subject mice with CD, HFD, and HFD with PER treatment were housed individually starting 7 days before the study to establish territory dominance. On the day of the test, a female mouse was presented in the cages of subject male mice, which is a subject (FIG. 2G), and 5 min trials were performed 4 times in succession at 10 min intervals. In the fifth trial, a novel female mouse was presented (FIG. 2G) and the duration of the social investigation was recorded.

N#Cc1ccccc1-c1cc(-c2ccccn2)cn(-c2ccccc2)c1=O [PER, 3-(2-cyanophenyl)-5-(2-pyridyl)-1-phenyl-1,2-dihydropyridine-2-one]
NMDAR function in all hippocampal subregions [1]: restoration | CP-AMPA reaction CA1 (maximum value of NF525) ([2]; CA1): 1.00 ± 0.01 (N = 5) | CP-AMPA reaction CA2 (maximum value of NF525) ([2]; CA2): 1.00 ± 0.02 (N = 5) | CP-AMPA reaction CA3 (maximum value of NF525) ([2]; CA3): 1.00 ± 0.01 (N = 5) | CP-AMPA reaction DG (maximum value of NF525) ([2]; DG): 1.02 ± 0.01 (N = 5) | CP-AMPA reaction EC (maximum value of NF525) ([2]; EC): 1.05 ± 0.05 (N = 5) | overweight / appearance at 12 weeks of age [3]: overweight was prevented | hippocampal volume (printed brain weight) by volumetric analysis [4]: significantly restored | novel object recognition test [5]: significantly distinguish | social memory (five-trial social interaction test) [6]: restored social memory disturbance
